Experimental data taken from patent US8106155B2, “Test kit for determining process for determining antibiotics containing a beta-lactam ring in a biological fluid” (Neogen Corporation, priority 1998, dated 2012).

Key:
[1] = molecular target: T1, BlaR-CTD-β-lactamase fusion protein (UniProt P04190+P12287); assay: Example 2: BlaR-CTD-β-lactamase fusion protein with cephalosporin C magnetic beads, milk; type: binding, Bacillus licheniformis; conditions: nitrocefine absorbance at 482 nm, 47° C., detection at concentrations below the US standards listed
T1 construct: made in house; host or cells: E. coli
T1 sequence (P12287+P04190 with tags, fused parts or gaps): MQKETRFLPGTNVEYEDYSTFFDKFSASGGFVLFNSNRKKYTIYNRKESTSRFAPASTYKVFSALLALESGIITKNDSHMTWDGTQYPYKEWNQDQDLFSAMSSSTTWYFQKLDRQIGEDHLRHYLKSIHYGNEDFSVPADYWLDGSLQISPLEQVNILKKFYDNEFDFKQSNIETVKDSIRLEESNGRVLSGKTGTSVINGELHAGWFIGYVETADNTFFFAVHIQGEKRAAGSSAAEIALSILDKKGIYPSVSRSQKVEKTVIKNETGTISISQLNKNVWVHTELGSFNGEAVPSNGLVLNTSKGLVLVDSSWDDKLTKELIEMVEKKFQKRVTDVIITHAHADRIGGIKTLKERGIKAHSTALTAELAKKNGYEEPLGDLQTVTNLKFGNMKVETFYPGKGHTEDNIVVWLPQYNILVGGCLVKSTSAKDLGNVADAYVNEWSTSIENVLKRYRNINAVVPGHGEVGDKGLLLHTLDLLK
Text: This example illustrates the detection in milk of the 6 antibiotics containing a β-lactam ring which are controlled by the US authorities. The test described in this example uses the BlaR-CTD receptor in the form of a fusion protein with β-lacatamase and uses a support in the form of magnetic beads.
The BlaR-CTD-β-lactamase fusion protein is obtained by genetic coupling between the BlaR-CTD receptor (B. Joris et al., FEMS Microbiology Letters, 107-114, 1990) and Zn β-lactamase from Bacillus cereus (M. Hussain et al., 1985, J. Bact., 164:1, 223-229, 1985).
BioMag 4100 particles (available from DRG Instrument GmbH, Marburg, Germany, under the reference AM 4100 B) are used, the NH2 ends of which have been activated with glutaraldehyde in the following way: • one volume of initial solution of BioMag 4100 particles is rinsed 4 times with 5 volumes of 0.01M pH 6.0 pyridine buffer. The particles are taken up in 2.5 volumes of glutaraldehyde at 5% in pyridine buffer and are agitated by rotation for 3 hours at room temperature. They are then rinsed 10 times with 2 volumes of 0.01 M pH 7.0 Kpi buffer. The particles are then resuspended in 1 volume of 0.1 M cephalosporin C in Kpi buffer and are agitated by rotation overnight at +4° C. The final rinsing is carried out until the cephalasporin C has been completely removed from the 0.1 M pH 7.0 Kpi buffer. 2.3. Determination of the 6 Antibiotics Penicillin G, Ampicillin, Amoxicillin, Cloxacillin, Cephapirin and Certiofur in Milk. […]
50 μl of solution 1 are placed in the presence of […] of doped milk samples and incubated at 47° C. for 2 minutes. […] The absorbance of the residual solution at 482 nm is then measured relative to the nitrocefine solution.

BlaR-CTD receptor = molecular target: T2, BlaR-CTD receptor (Bacillus licheniformis, UniProt P12287); assay: 3-minute rapid test: BlaR-CTD coupled to gold beads, membrane test device, milk; type: binding; conditions: 47° C.; for Intensity 1st band: 3-minute test, scale 0 to 10, reference band 6; for concentration detected in a sample of milk: test carried out in 3 minutes, positive when 1st band less intense than 2nd band
T2 construct: uses the BlaR-CTD receptor coupled to gold beads
Method: This example illustrates the detection in milk of antibiotics containing a β-lactam ring, which are controlled by the health authorities. The test described in this example uses the BlaR-CTD receptor coupled to gold beads which serve as labelling agents, and uses a support in the form of a test device comprising a solid support to which membranes are attached.
7 samples of fresh milk containing 0; 1; 2; 3; 4; 5 and 6 ppb of penicillin G, respectively, are prepared. Each of these solutions is then analyzed in the following way:
A 200 μl aliquot sample of milk and 45.27 μl of solution prepared in Example 1.1.3 are taken and placed in a glass flask. This mixture is incubated for 1 minute at 47° C. A test device is taken and placed vertically in the glass flask such that the first end of the test device is in contact with the mixture and such that the second end rests on the wall of the glass flask. The mixture is left to migrate on the test device, while incubating the assembly for 2 minutes at 47° C.
An intensity value ranging from 0 to 10 is attributed to the bands detected, the value 10 being given to the most intense band and the value 0 being given to the least intense band. According to this scale, a value of 6 is assigned to the reference band. The intensity of the signal observed in the first band is inversely proportional to the amount of penicillin G present in the sample.
In this example, when the first band has an intesity less than that of the second band, the test is considered as being positive.

Compound	concentration detected in milk [1] [ppb]	Intensity 1st band (BlaR-CTD receptor; 1 ppb penicillin G in milk)	Intensity 1st band (BlaR-CTD receptor; 2 ppb penicillin G in milk)	Intensity 1st band (BlaR-CTD receptor; 3 ppb penicillin G in milk)	Intensity 1st band (BlaR-CTD receptor; 4 ppb penicillin G in milk)	Intensity 1st band (BlaR-CTD receptor; 5 ppb penicillin G in milk)	Intensity 1st band (BlaR-CTD receptor; 6 ppb penicillin G in milk)	concentration detected in a sample of milk (BlaR-CTD receptor)
CC1(C)S[C@@H]2[C@H](NC(=O)Cc3ccccc3)C(=O)N2[C@H]1C(=O)O [penicillin G]	< 5	9	9	4	0	0	0	less than 4 ppb
CO/N=C(\C(=O)N[C@@H]1C(=O)N2C(C(=O)O)=C(CSC(=O)c3ccco3)CS[C@H]12)c1csc(N)n1 [ceftiofur]	< 50							
CC(=O)OCC1=C(C(=O)O)N2C(=O)[C@@H](NC(=O)CSc3ccncc3)[C@H]2SC1 [cephapirin]	< 20							20 ppb
